Experimental findings from US9839632B2, “Methods and compositions using 4-amino-2-(2,6-dioxo-piperidine-3-yl)-isoindoline-1,3-dione for treatment and management of central nervous system cancers” (CELGENE CORPORATION, priority 2013, dated 2017) are described below.

The test system of the experiment is human monocyte U937 cells. As to the kind of experiment: Phagocytosis assay, human monocyte U937 cells. It counts as cell-based. To be noted: 3 or 10 ug/ml, 48 hours, P<0.05 vs control. On the procedure:
Phagocytosis assay: The impact of 4-amino-2-(2,6-dioxo-piperidine-3-yl)-isoindoline-1,3-dione on the phagocytic activity of macrophages was assessed in primary microglial cells and human monocyte cells (U937). The cells were cultured in complete medium for 4 days. They were then harvested and resuspended in Opti-MEM medium at 10^6 cells/ml and seeded in a 96 well plate at 100,000 viable cells/well. The experimental wells were treated with 4-amino-2-(2,6-dioxo-piperidine-3-yl)-isoindoline-1,3-dione 3 or 10 ug/ml. After 48 hours of treatment, the culture medium was quickly replaced with 100 ul of pHrodo BioParticles suspension (Life technologies and the cells were incubated in the suspension at 37° C. for 2-3 hours. Following incubation, the plates were scanned at 550 nm/600 nm (excitation/emission) using fluorescence plate reader. The fluorescence activity reflects the phagocytic activity of the macrophages. The impact of 4-amino-2-(2,6-dioxo-piperidine-3-yl)-isoindoline-1,3-dione treatment (% effect) was calculated as a fraction of the phagocytic activity in the positive control wells. Wan, C. P.; et al., J. Immunol. Methods, 1993, 162, pp. 1-7.

Molecules are shown by their SMILES.

As to `Nc1cccc2c1C(=O)N(C1CCC(=O)NC1=O)C2=O` (stereo not shown) [Pomalidomide, 4-amino-2-(2,6-dioxo-piperidine-3-yl)-isoindoline-1,3-dione], the phagocytic activity entry was “significantly increased”.
